US20060111324A1, “(+)-Ttrans-isomers of (1-phosphonomethoxy-2-alkylcyclopropyl)methyl nucleoside derivatives, process for the preparation of stereoisomers thereof, and use of antiviral agents thereof” (LG Life Sciences, priority 2002, published 2006)
Read-outs that look alike come from different tables or passages of the source.

Legend:
Hepatitis B Virus (HBV) = assay: Inhibition of hepatitis B virus replication in HepG2.2.15 cells, quantitative PCR of culture medium; assay type: cell-based; conditions: for pharmaceutical activity as an antiviral agent (in words): comparison among the compounds of Table 2
[1] = Determination of cytotoxicity (MTT) in HepG2.2.15 cells; conditions: human
HepG2.2.15 cell [2] = tested on: HepG2.2.15 cell
HBV = assay: Pharmacological test on HBV transgenic mouse (serum HBV DNA by PCR); assay type: in vivo; conditions: for Result: number of mice showing pharmacological effect / number of total mice: effect = blood does not contain HBV DNA
HepG2.2.15 cell [3] = assay: Determination of cytotoxicity (MTT) in HepG2.2.15 cells; conditions: read-out: CC50 (μM) in HepG2.2.15; MTT, 10th day of drug treatment
[4] = Hepatitis B virus, 240 h, HepG2.2.15 cells, 10 days drug treatment, HBV DNA in medium by PCR

Question: For `C[C@@H]1C[C@]1(Cn1cnc2c(O)nc(N)nc21)OCP(=O)(O)O` (single isomer, unassigned) [Compound 38, ({(+)-cis-1-[(2-amino-6-hydroxy-9H-purine-9-yl)methyl]-2-methylcyclopropyl}oxy)methylphosphonic acid], which EC50 (Hepatitis B Virus (HBV); [4]) is on record?
Answer: Its EC50 is over 10 µM.

Question: And the CC50 at 10 days [1]?
Answer: The CC50 at 10 days was over 1000 µM.

Question: With `C[C@H]1C[C@]1(Cn1cnc2c(O)nc(N)nc21)OCP(=O)(O)O` [Compound 1, (((1S,2S)-1-[(2-amino-6-hydroxy-9H-purine-9-yl)methyl]-2-methylcyclopropyl}oxy)methylphosphonic acid] as the compound, how does the EC50 (Hepatitis B Virus (HBV); [4]) read?
Answer: Its EC50 is 0.03 µM.

Question: And the “pharmaceutical activity as an antiviral agent (in words)” value (Hepatitis B Virus (HBV))?
Answer: Its value is “most excellent pharmaceutical activity”.

Question: And the CC50 at 10 days [1]?
Answer: The CC50 at 10 days was over 1000 µM.

Question: For `C[C@@H]1C[C@]1(Cn1cnc2c(Sc3ccc([N+](=O)[O-])cc3)nc(N)nc21)OCP(=O)(O)O` (relative stereo) [Compound 44, [{(+)-cis-1-({2-amino-6-[(4-nitrophenyl)sulfanyl]-9H-purine-9-yl}methyl)-2-methylcyclopropyl}oxy]methylphosphonic acid], which EC50 (Hepatitis B Virus (HBV); [4]) is on record?
Answer: Its EC50 is over 40 µM.

Question: What about the CC50 at 10 days [1] of the same compound?
Answer: Its CC50 at 10 days is over 1000 µM.

Question: Which results are given for `CCC1CC1(Cn1cnc2c(O)nc(N)nc21)OCP(=O)(O)O` (single isomer, unassigned) [Compound 37, ({(−)-trans-1-1(2-amino-6-hydroxy-9H-purine-9-yl)methyl]-2-ethylcyclopropyl}oxy)methylphosphonic acid]?
Answer: EC50 (Hepatitis B Virus (HBV); [4]): > 40 µM; CC50 at 10 days [1]: > 1000 µM

Question: Which EC50 (Hepatitis B Virus (HBV)) does the source give for “({(±)-trans-1-[(2-amino-9H-purine-9-yl)methyl]-2-propylcyclopropyl}oxy)methylphosphonic acid [Compound 39]” here?
Answer: Its EC50 is over 40 µM.

Question: What about the CC50 (HepG2.2.15 cell [2]) of the same compound?
Answer: Its CC50 is over 1000 µM.

Question: Which “pharmacological effect (in words)” value (HBV; HBV transgenic mice, orally administrated at 1 mpk or less) does the source give for `CC(C)OC(=O)OCOP(=O)(COC1(Cn2cnc3cnc(N)nc32)CC1C)OCOC(=O)OC(C)C` [Compound 7, (1S,2S)-bis {[(isopropoxycarbonyl)oxy]methyl}({1-[(2-amino-9H-purine-9-yl)methyl]-2-methylcyclopropyl}oxy)methylphosphonate] here?
Answer: Its value is “very excellent pharmacological effect”.

Question: What about the “Result: number of mice showing pharmacological effect / number of total mice” value (HBV; oral, 1 mg/kg/day) of the same compound?
Answer: Its value is 5/5.

Question: Which results are given for `CC1CC1(Cn1cnc2c(O)nc(N)nc21)OCP(=O)(O)O` (single isomer, unassigned) [Compound 36, {(−)-trans-1-[(2-amino-6-hydroxy-9H-purine-9-yl)methyl]-2-methylcyclopropyl}oxy)methylphosphonic acid]?
Answer: EC50 (Hepatitis B Virus (HBV); HepG2.2.15 cells, 10 days drug treatment, HBV DNA in medium by PCR): > 10 µM; CC50 (HepG2.2.15 cell [3]): > 1000 µM

Question: For “[{(±)-trans-1-({2-amino-6-[(4-methoxyphenyl)sulfanyl]-9H-purine-9-yl}methyl)-2-ethylcyclopropyl }oxy]methylphosphonic acid [Compound 43]”, which EC50 (Hepatitis B Virus (HBV)) is on record?
Answer: Its EC50 is over 0.2 µM.

Question: What about the CC50 (HepG2.2.15 cell [2]) of the same compound?
Answer: The CC50 was over 1000 µM.

Question: For `CC1CC1(Cn1cnc2c(N)ncnc21)OCP(=O)(O)O` (stereo not drawn) [Compound 45, ({[(+)-cis-[1-(6-amino-9H-purine-9-yl)methyl]-2-methylcyclopropyl}oxylmethylphosphonic acid], which EC50 (Hepatitis B Virus (HBV); [4]) is on record?
Answer: Its EC50 is over 40 µM.

Question: And the CC50 at 10 days [1]?
Answer: The CC50 at 10 days was over 1000 µM.

Question: Which results are given for `CC[C@H]1C[C@]1(Cn1cnc2c(O)nc(N)nc21)OCP(=O)(O)O` [Compound 12, ({(1S,2S)-1-[(2-amino-6-hydroxy-9H-purine-9-yl)methyl]-2-ethylcyclopropyl}oxy)methylphosphonic acid]?
Answer: EC50 (Hepatitis B Virus (HBV); [4]): 0.03 µM; pharmaceutical activity as an antiviral agent (in words) (Hepatitis B Virus (HBV)): most excellent pharmaceutical activity; CC50 at 10 days [1]: > 1000 µM

Question: With `CC1CC1(Cn1cnc2cnc(N)nc21)OCP(=O)(OCOC(=O)C(C)(C)C)OCOC(=O)C(C)(C)C` [Compound 6, (1S,2S)-3-[({1-[(2-amino-9H-purine-9-yl)methyl]-2-methylcyclopropyl}oxy)methyl]-8,8-dimethyl-3,7-dioxo-2,4,6-trioxa-3λ^5-phosphanon-1-yl-pivalate] as the compound, how does the “Result: number of mice showing pharmacological effect / number of total mice” value (HBV; oral, 1 mg/kg/day) read?
Answer: The value was 5/5.

Question: With `CCC1CC1(Cn1cnc2cnc(N)nc21)OCP(=O)(O)O` [Compound 13, ({(1S,^2S)-1-[(2-amino-9H-purine-9-yl)methyl]-2-ethylcyclopropyl}oxy)methylphosphonic acid] as the compound, how does the EC50 (Hepatitis B Virus (HBV); [4]) read?
Answer: The EC50 was over 10 µM.

Question: And the CC50 at 10 days [1]?
Answer: Its CC50 at 10 days is over 1000 µM.

Question: Which results are given for “({(±)-trans-1-[(2-amino-6-hydroxy-9H-purine-9-yl)methyl]-2-propylcyclopropyl}oxy)methylphosphonic acid [Compound 40]”?
Answer: EC50 (Hepatitis B Virus (HBV)): 1.2 µM; CC50 (HepG2.2.15 cell [2]): > 1000 µM

Question: For “({(±)-trans-1-[(6-amino-9H-purine-9-yl)methyl]-2-propylcyclopropyl}oxy)methylphosphonic acid [Compound 41]”, which EC50 (Hepatitis B Virus (HBV)) is on record?
Answer: The EC50 was over 30 µM.

Question: And the CC50 (HepG2.2.15 cell [2])?
Answer: The CC50 was over 1000 µM.

Question: With `C[C@H]1C[C@]1(Cn1cnc2cnc(N)nc21)OCP(=O)(O)O` [Compound 2, ({(1S,2S)-1-[(2-amino-9H-purine-9-yl)methyl]-2-methylcyclopropyl}oxy)methylphosphonic acid] as the compound, how does the EC50 (Hepatitis B Virus (HBV); [4]) read?
Answer: Its EC50 is 1 µM.

Question: What about the “Result: number of mice showing pharmacological effect / number of total mice” value (HBV; subcutaneous, 10 mg/kg/day) of the same compound?
Answer: The value was 4/4.

Question: What about the CC50 at 10 days [1] of the same compound?
Answer: Its CC50 at 10 days is over 1000 µM.

Question: Which “Result: number of mice showing pharmacological effect / number of total mice” value (HBV; oral, 1 mg/kg/day) does the source give for `COc1ccc(Sc2nc(N)nc3c2ncn3CC2(OCP(=O)(OCOC(=O)C(C)(C)C)OCOC(=O)C(C)(C)C)CC2C)cc1` [Compound 8, (1S,2S)-3-{[(1-{[2-amino-6-(4-methoxyphenylthio)-9H-purine-9-yl]methyl}-2-methylcyclopropyl)oxy]methyl}-8,8-dimethyl-3,7-dioxo-2,4,6-trioxa-3λ^5-phospanon-1-yl-pivalate] here?
Answer: Its value is 2/5.
